According to patent US9815802B2, “Herbicidally active N-(1-methyltetrazol-5-yl)benzoic acid amides” (BAYER CROPSCIENCE AKTIENGESELLSCHAFT, priority 2014, dated 2017):

What was measured:
Type in all cases: in vivo
Setaria viridis [1] = test: Pre-emergence herbicidal action against SETVI; conditions: dosage 320 g/ha
From the text: (§1) Pre-Emergence Herbicidal Action Against Harmful Plants
(§2) Seeds of monocotyledonous and dicotyledonous weed plants and crop plants are laid out in wood-fiber pots in sandy loam and covered with soil. The compounds of the invention, formulated in the form of wettable powders (WP) or as emulsion concentrates (EC), are then applied to the surface of the covering soil in the form of an aqueous suspension or emulsion at a water application rate equating to 600 to 800 I/ha, with addition of 0.2% wetting agent. After the treatment, the pots are placed in a greenhouse and kept under good growth conditions for the trial plants. The damage to the test plants is scored visually after a test period of 3 weeks by comparison with untreated controls (herbicidal activity in percent (%): 100% activity=the plants have died, 0% activity=like control plants). For example, compounds no. 1-001, 1-002, 1-003, 1-004, 1-011, 1-012, 1-021, 1-022, 1-031, 1-032, 1-041, 1-042 and 1-044 at an application rate of 320 g/ha each have at least 80% efficacy against Echinocloa crusgalli, Abutilon theophrasti, Amaranthus retroflexus and Matricaria inodora.

Stellaria media [2] = test: Pre-emergence herbicidal action against STEME; conditions: dosage 320 g/ha
From the text: as §1, §2

Pharbitis purpureum = test: Pre-emergence herbicidal action against PHBPU; conditions: dosage 320 g/ha
From the text: as §1, §2

Avena fatua [3] = test: Pre-emergence herbicidal action against AVEFA; conditions: dosage 320 g/ha
From the text: as §1, §2

Polygonum convolvulus [4] = test: Pre-emergence herbicidal action against POLCO; conditions: dosage 320 g/ha
From the text: as §1, §2

Echinochloa crus galli = test: Post-emergence herbicidal action against ECHCG; conditions: dosage 80 g/ha
Protocol: (§3) Post-Emergence Herbicidal Action Against Harmful Plants Seeds of monocotyledonous and dicotyledonous weed and crop plants are laid out in sandy loam in wood-fiber pots, covered with soil and cultivated in a greenhouse under good growth conditions. 2 to 3 weeks after sowing, the test plants are treated at the one-leaf stage. The compounds of the invention, formulated in the form of wettable powders (WP) or as emulsion concentrates (EC), are then sprayed onto the green parts of the plants in the form of an aqueous suspension or emulsion at a water application rate equating to 600 to 800 I/ha, with addition of 0.2% wetting agent. After the test plants have been left to stand in the greenhouse under optimal growth conditions for about 3 weeks, the action of the preparations is assessed visually in comparison to untreated controls (herbicidal action in percent (%): 100% activity=the plants have died, 0% activity=like control plants).

Abutilon theophrasti = test: Post-emergence herbicidal action against ABUTH; conditions: dosage 80 g/ha
Protocol: as §3

Setaria viridis [5] = test: Post-emergence herbicidal action against SETVI
Protocol: as §3

Alopecurus myosuroides = test: Post-emergence herbicidal action against ALOMY
Protocol: as §3

Avena fatua [6] = test: Post-emergence herbicidal action against AVEFA
Protocol: as §3

Stellaria media [7] = test: Post-emergence herbicidal action against STEME; conditions: dosage 5 g/ha
Protocol: as §3

Polygonum convolvulus [8] = test: Post-emergence herbicidal action against POLCO
Protocol: as §3

With `CCOSc1c(C)ccc(C(=O)Nc2nnnn2C)c1[N+](=O)[O-]` [4-799] the “Activity against SETVI” value (Setaria viridis [1]) was 0% and the “Activity against STEME” value (Stellaria media [2]) was 70%.

For `COc1c(C(=O)Nc2nnnn2C)ccc(C)c1S(C)(=O)=O` [4-811], the “Activity against PHBPU” value (Pharbitis purpureum) was 70% and the “Activity against AVEFA” value (Avena fatua [3]) was 60%.

For `CCOSc1c(CC)ccc(C(=O)Nc2nnnn2C)c1CC` [drawing 36], the “Activity against PHBPU” value (Pharbitis purpureum) was 100% and the “Activity against POLCO” value (Polygonum convolvulus [4]) was 100%.

With `CCc1c(C(=O)Nc2nnnn2C)ccc(Cl)c1S(=O)(=O)CC` [drawing 37, reference compound] the “Activity against PHBPU” value (Pharbitis purpureum) was 80% and the “Activity against POLCO” value (Polygonum convolvulus [4]) was 60%.

`COSc1c(C)ccc(C(=O)Nc2nnnn2C)c1C` [drawing 38] was tested, and the “Activity against ECHCG” value (Echinochloa crus galli) was 100%, the “Activity against ABUTH” value (Abutilon theophrasti) was 100% and the “Activity against SETVI” value (Setaria viridis [5]; dosage 80 g/ha) was 100%.

`COSc1c(C)ccc(C(=O)Nc2nnnn2C)c1C` [drawing 39, reference compound] was tested, and the “Activity against ECHCG” value (Echinochloa crus galli) was 40%, the “Activity against ABUTH” value (Abutilon theophrasti) was 80% and the “Activity against SETVI” value (Setaria viridis [5]; dosage 80 g/ha) was 20%.

`CCOSc1c(C)ccc(C(=O)Nc2nnnn2C)c1[N+](=O)[O-]` [drawing 43, reference compound] was tested, and the “Activity against ALOMY” value (Alopecurus myosuroides; dosage 80 g/ha) was 10% and the “Activity against AVEFA” value (Avena fatua [6]; dosage 80 g/ha) was 0%.

With `CCS(=O)(=O)c1c(C)ccc(C(=O)Nc2nnnn2C)c1C` [drawing 45] the “Activity against ALOMY” value (Alopecurus myosuroides; dosage 80 g/ha) was 90% and the “Activity against AVEFA” value (Avena fatua [6]; dosage 80 g/ha) was 80%.

`CCS(=O)(=O)c1c(C)ccc(C(=O)Nc2nnnn2C)c1C` [drawing 46, reference compound] was tested, and the “Activity against ALOMY” value (Alopecurus myosuroides; dosage 80 g/ha) was 40% and the “Activity against AVEFA” value (Avena fatua [6]; dosage 80 g/ha) was 20%.

For `COSc1c(S(C)(=O)=O)ccc(C(=O)Nc2nnnn2C)c1C` [drawing 50, reference compound], the “Activity against SETVI” value (Setaria viridis [5]; dosage 5 g/ha) was 40% and the “Activity against STEME” value (Stellaria media [7]) was 80%.

In the case of `CCc1ccc(C(=O)Nc2nnnn2C)c(C)c1S(C)(=O)=O` [drawing 51], the “Activity against ALOMY” value (Alopecurus myosuroides; dosage 5 g/ha) is reported as 60% and the “Activity against AVEFA” value (Avena fatua [6]; dosage 5 g/ha) is reported as 80%.

For `Cc1c(C(=O)Nc2nnnn2C)ccc(S(C)(=O)=O)c1S(C)(=O)=O` [drawing 52, reference compound], the “Activity against ALOMY” value (Alopecurus myosuroides; dosage 5 g/ha) was 30% and the “Activity against AVEFA” value (Avena fatua [6]; dosage 5 g/ha) was 10%.

With `COSc1c(S(C)(=O)=O)ccc(C(=O)Nc2nnnn2C)c1C` [drawing 55, reference compound] the “Activity against ALOMY” value (Alopecurus myosuroides; dosage 5 g/ha) was 0% and the “Activity against AVEFA” value (Avena fatua [6]; dosage 5 g/ha) was 0%.

In the case of `Cc1c(C(=O)Nc2nnnn2C)ccc(S(C)(=O)=O)c1S(C)(=O)=O` [drawing 60], the “Activity against ALOMY” value (Alopecurus myosuroides; Table S, dosage 5 g/ha) is reported as 30% and the “Activity against AVEFA” value (Avena fatua [6]; Table S, dosage 5 g/ha) is reported as 10%.

With `CCc1c(C(=O)Nc2nnnn2C)ccc(C)c1SOC` [drawing 61] the “Activity against ECHCG” value (Echinochloa crus galli; Table T) was 90% and the “Activity against SETVI” value (Setaria viridis [5]; Table T, dosage 80 g/ha) was 80%.

With `COSc1c(C)ccc(C(=O)Nc2nnnn2C)c1C` [drawing 62] the “Activity against ECHCG” value (Echinochloa crus galli; Table T) was 40% and the “Activity against SETVI” value (Setaria viridis [5]; Table T, dosage 80 g/ha) was 20%.

`COSc1c(C)ccc(C(=O)Nc2nnnn2C)c1[N+](=O)[O-]` [drawing 63] was tested, and the “Activity against ECHCG” value (Echinochloa crus galli; Table T) was 20% and the “Activity against SETVI” value (Setaria viridis [5]; Table T, dosage 80 g/ha) was 0%.

For `Cc1ccc(C(=O)Nc2nnnn2C)c([N+](=O)[O-])c1S(C)(=O)=O` [drawing 66], the “Activity against ECHCG” value (Echinochloa crus galli; Table U) was 0% and the “Activity against SETVI” value (Setaria viridis [5]; Table U, dosage 80 g/ha) was 0%.

With `CCc1c(C(=O)Nc2nnnn2C)ccc(C)c1SOC` [drawing 67] the “Activity against POLCO” value (Polygonum convolvulus [8]; Table V, dosage 5 g/ha) was 60%.

`CCc1c(C(=O)Nc2nnnn2C)ccc(Br)c1SOC` [drawing 69] was tested, and the “Activity against POLCO” value (Polygonum convolvulus [8]; Table V, dosage 5 g/ha) was 20%.

For `CCc1c(C(=O)Nc2nnnn2C)ccc(C)c1S(C)(=O)=O` [drawing 70], the “Activity against POLCO” value (Polygonum convolvulus [8]; Table W, dosage 20 g/ha) was 70%.

In the case of `CCc1c(C(=O)Nc2nnnn2C)ccc(Cl)c1S(C)(=O)=O` [drawing 71], the “Activity against POLCO” value (Polygonum convolvulus [8]; Table W, dosage 20 g/ha) is reported as 50%.

In the case of `CCOSc1c(CC)ccc(C(=O)Nc2nnnn2C)c1CC` [drawing 73], the “Activity against POLCO” value (Polygonum convolvulus [8]; Table X, dosage 20 g/ha) is reported as 60%.

In the case of `CCc1c(C(=O)Nc2nnnn2C)ccc(Cl)c1S(=O)(=O)CC` [drawing 76], the “Activity against POLCO” value (Polygonum convolvulus [8]; Table Y, dosage 20 g/ha) is reported as 70%.

`CCOSc1c(OC)ccc(C(=O)Nc2nnnn2C)c1C` [reference compound] was tested, and the “Activity against ALOMY” value (Alopecurus myosuroides; dosage 80 g/ha) was 40% and the “Activity against AVEFA” value (Avena fatua [6]; dosage 80 g/ha) was 20%.

With `CCS(=O)(=O)c1c(C)ccc(C(=O)Nc2nnnn2C)c1[N+](=O)[O-]` [reference compound] the “Activity against ALOMY” value (Alopecurus myosuroides; dosage 80 g/ha) was 10% and the “Activity against AVEFA” value (Avena fatua [6]; dosage 80 g/ha) was 0%.

In the case of `COSc1c(C(F)(F)F)ccc(C(=O)Nc2nnnn2C)c1C` [reference compound], the “Activity against SETVI” value (Setaria viridis [5]; dosage 5 g/ha) is reported as 80% and the “Activity against STEME” value (Stellaria media [7]) is reported as 80%.

`Cc1c(C(=O)Nc2nnnn2C)ccc(Cl)c1S(C)(=O)=O` [reference compound] was tested, and the “Activity against ALOMY” value (Alopecurus myosuroides; dosage 5 g/ha) was 20% and the “Activity against AVEFA” value (Avena fatua [6]; dosage 5 g/ha) was 20%.

For `COSc1cccc(C(=O)Nc2nnnn2C)c1C` [reference compound], the “Activity against ALOMY” value (Alopecurus myosuroides; dosage 5 g/ha) was 10% and the “Activity against AVEFA” value (Avena fatua [6]; dosage 5 g/ha) was 20%.
